Laboratory results reported in US10221426B2, “Constitutively active PYR/PYL receptor proteins for improving plant stress tolerance” (The Regents of the University of California, priority 2009, dated 2019).

Experiments:
Type in all cases: cell-based
Conditions in all cases: 10 μM
PYL2-HAB1 = target: T1, PYL2-HAB1 (Arabidopsis thaliana, UniProt O80992); assay: Yeast two-hybrid BD-PYL2 / AD-HAB1 interaction, X-gal stain
T1 construct: BD-PYR/PYL fusion proteins were constructed in the same manner as for BD-PYR1 above; expressed in transfected cells; host or cells: yeast (Y190, as for BD-PYR1)
T1 sequence (O80992 1-190): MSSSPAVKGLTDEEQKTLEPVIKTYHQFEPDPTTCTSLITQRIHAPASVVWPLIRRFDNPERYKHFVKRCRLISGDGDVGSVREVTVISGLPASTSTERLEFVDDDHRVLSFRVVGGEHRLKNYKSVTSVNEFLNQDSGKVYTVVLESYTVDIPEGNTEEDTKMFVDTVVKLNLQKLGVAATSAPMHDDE
T1 sequence (Q9CAJ0 23-511 partner): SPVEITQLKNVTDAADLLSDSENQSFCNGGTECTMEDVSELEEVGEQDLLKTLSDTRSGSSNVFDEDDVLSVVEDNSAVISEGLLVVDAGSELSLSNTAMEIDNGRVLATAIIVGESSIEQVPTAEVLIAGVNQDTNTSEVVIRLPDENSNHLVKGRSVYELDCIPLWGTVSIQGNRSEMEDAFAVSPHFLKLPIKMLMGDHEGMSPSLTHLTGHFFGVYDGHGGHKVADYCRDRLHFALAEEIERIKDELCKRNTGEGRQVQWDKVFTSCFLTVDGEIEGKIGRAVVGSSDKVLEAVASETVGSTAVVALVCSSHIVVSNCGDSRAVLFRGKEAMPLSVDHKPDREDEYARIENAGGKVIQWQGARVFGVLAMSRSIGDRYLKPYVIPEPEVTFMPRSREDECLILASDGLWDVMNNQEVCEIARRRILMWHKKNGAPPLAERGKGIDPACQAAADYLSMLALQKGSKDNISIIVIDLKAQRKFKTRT
Experimental: Given that PYR1 is necessary for pyrabactin action and is a predicted ligand-binding protein, we hypothesized that pyrabactin agonizes ABA signaling by inducing a protein-protein interaction between PYR1 and a downstream effector. To test this, ˜2 million prey cDNA clones were screened against a PYR1 Y2H bait construct on media containing 10 μM pyrabactin. To create the PYR1 Y2H bait construct, the Pyr1 open reading frame was PCR amplified from genomic DNA and cloned to pGem-T easy vector (Promega). After sequence confirmation, the Pyr1 ORF was then cloned in-frame between EcoRI and SalI sites of the pBD-GAL4 Cam vector (Stratagene) and transformed into yeast strain Y190. For the screen, an etiolated seedling cDNA library (J. Kim, K., Harter, A., Theologis, Proc Natl Acad Sci USA 94, 11786 (Oct. 28, 1997)) (ABRC stock CD4-22) was used. The cDNA library was first converted from phage to plasmid DNA, yielding 7.6×10^7 transformants. Plasmid DNA prepared from library was then used to transform Y190 as described in the GAL4 Two-Hybrid system manual (Stratagene). For each screen, 40 μg of prey plasmid was transformed into 1 ml of competent Y190 cell harboring bait construct and then grown on SD agar plates lacking His, Leu, and Trp, but containing 15 mM 3-AT and 10 μM pyrabactin. After 4 days incubation at 30° C., well-grown colonies were rescued and interactions validated using filter lift assay or chloroform-agarose overlay method and X-Gal staining. This identified two pyrabactin-dependent hits which sequencing determined encoded cDNAs for the PP2C HAB1, a close relative of the well-characterized ABA response factor ABI1 (A. Saez et al., The Plant Journal 37, 354 (2004); N. Leonhardt et al., THE PLANT CELL 16, 596 (2004)). Next, Y2H strains expressing an AD-HAB1 fusion protein and a BD-PYR1 fusion protein were grown on plates and tested for interactions in response to various compounds, all at 10 μM except for epi-brassinolide (50 nM) and dimethyl sulfoxide (DMSO) (carrier solvent, 1%). […] Thus, PYR1 interacts with HAB1 in a (+)-ABA dependent fashion. […]

PYL4-HAB1 = target: T2, PYL4-HAB1 (Arabidopsis thaliana, UniProt O80920); assay: Yeast two-hybrid BD-PYL4 / AD-HAB1 interaction
T2 construct: BD-PYR/PYL fusion proteins were constructed in the same manner as for BD-PYR1 above; expressed in transfected cells; host or cells: yeast (Y190, as for BD-PYR1)
T2 sequence (O80920 1-207): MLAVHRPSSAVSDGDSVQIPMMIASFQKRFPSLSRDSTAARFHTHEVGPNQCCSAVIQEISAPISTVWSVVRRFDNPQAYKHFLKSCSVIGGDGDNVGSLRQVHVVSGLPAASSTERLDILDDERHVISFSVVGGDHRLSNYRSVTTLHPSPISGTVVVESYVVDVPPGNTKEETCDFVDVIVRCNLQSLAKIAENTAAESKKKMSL
T2 sequence (Q9CAJ0 23-511 partner): T1 sequence (Q9CAJ0 23-511 partner)
Experimental: Given that PYR1 is necessary for pyrabactin action and is a predicted ligand-binding protein, we hypothesized that pyrabactin agonizes ABA signaling by inducing a protein-protein interaction between PYR1 and a downstream effector. To test this, ˜2 million prey cDNA clones were screened against a PYR1 Y2H bait construct on media containing 10 μM pyrabactin. To create the PYR1 Y2H bait construct, the Pyr1 open reading frame was PCR amplified from genomic DNA and cloned to pGem-T easy vector (Promega). After sequence confirmation, the Pyr1 ORF was then cloned in-frame between EcoRI and SalI sites of the pBD-GAL4 Cam vector (Stratagene) and transformed into yeast strain Y190. For the screen, an etiolated seedling cDNA library (J. Kim, K., Harter, A., Theologis, Proc Natl Acad Sci USA 94, 11786 (Oct. 28, 1997)) (ABRC stock CD4-22) was used. The cDNA library was first converted from phage to plasmid DNA, yielding 7.6×10^7 transformants. Plasmid DNA prepared from library was then used to transform Y190 as described in the GAL4 Two-Hybrid system manual (Stratagene). For each screen, 40 μg of prey plasmid was transformed into 1 ml of competent Y190 cell harboring bait construct and then grown on SD agar plates lacking His, Leu, and Trp, but containing 15 mM 3-AT and 10 μM pyrabactin. After 4 days incubation at 30° C., well-grown colonies were rescued and interactions validated using filter lift assay or chloroform-agarose overlay method and X-Gal staining. This identified two pyrabactin-dependent hits which sequencing determined encoded cDNAs for the PP2C HAB1, a close relative of the well-characterized ABA response factor ABI1 (A. Saez et al., The Plant Journal 37, 354 (2004); N. Leonhardt et al., THE PLANT CELL 16, 596 (2004)). Next, Y2H strains expressing an AD-HAB1 fusion protein and a BD-PYR1 fusion protein were grown on plates and tested for interactions in response to various compounds, all at 10 μM except for epi-brassinolide (50 nM) and dimethyl sulfoxide (DMSO) (carrier solvent, 1%). […] Thus, PYR1 interacts with HAB1 in a (+)-ABA dependent fashion.
To see if ABA and pyrabactin responsiveness is unique to PYR1, we tested 11 of the 13 PYL proteins as described above, using Y2H strains expressing an AD-HAB1 fusion protein and a BD-PYR/PYL fusion protein (listed at the left of FIG. 3A). BD-PYR/PYL fusion proteins were constructed in the same manner as for BD-PYR1 above. […] Of these, only Pyr1 is highly transcribed in seeds, which likely explains why mutations in Pyr1 cause the seeds to be insensitive to pyrabactin. […] However the interactions of PYLs 5-12 with the PP2Cs are indicative that the entire protein family is likely to share a similar mechanism of action involving PP2C modulation, as we describe below. […]

PYL1-HAB1 = target: T3, PYL1-HAB1 (Arabidopsis thaliana, UniProt Q8VZS8); assay: Yeast two-hybrid BD-PYL1 / AD-HAB1 interaction, X-gal stain
T3 construct: BD-PYR/PYL fusion proteins were constructed in the same manner as for BD-PYR1 above; expressed in transfected cells; host or cells: yeast (Y190, as for BD-PYR1)
T3 sequence (Q8VZS8 1-221): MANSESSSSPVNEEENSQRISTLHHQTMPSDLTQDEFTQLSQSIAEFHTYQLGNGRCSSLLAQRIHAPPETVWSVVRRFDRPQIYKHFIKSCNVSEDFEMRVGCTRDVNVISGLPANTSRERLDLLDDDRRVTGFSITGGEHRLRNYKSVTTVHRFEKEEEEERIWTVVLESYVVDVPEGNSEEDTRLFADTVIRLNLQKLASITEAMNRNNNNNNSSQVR
T3 sequence (Q9CAJ0 23-511 partner): T1 sequence (Q9CAJ0 23-511 partner)
Experimental: Given that PYR1 is necessary for pyrabactin action and is a predicted ligand-binding protein, we hypothesized that pyrabactin agonizes ABA signaling by inducing a protein-protein interaction between PYR1 and a downstream effector. To test this, ˜2 million prey cDNA clones were screened against a PYR1 Y2H bait construct on media containing 10 μM pyrabactin. To create the PYR1 Y2H bait construct, the Pyr1 open reading frame was PCR amplified from genomic DNA and cloned to pGem-T easy vector (Promega). After sequence confirmation, the Pyr1 ORF was then cloned in-frame between EcoRI and SalI sites of the pBD-GAL4 Cam vector (Stratagene) and transformed into yeast strain Y190. For the screen, an etiolated seedling cDNA library (J. Kim, K., Harter, A., Theologis, Proc Natl Acad Sci USA 94, 11786 (Oct. 28, 1997)) (ABRC stock CD4-22) was used. The cDNA library was first converted from phage to plasmid DNA, yielding 7.6×10^7 transformants. Plasmid DNA prepared from library was then used to transform Y190 as described in the GAL4 Two-Hybrid system manual (Stratagene). […] This identified two pyrabactin-dependent hits which sequencing determined encoded cDNAs for the PP2C HAB1, a close relative of the well-characterized ABA response factor ABI1 (A. Saez et al., The Plant Journal 37, 354 (2004); N. Leonhardt et al., THE PLANT CELL 16, 596 (2004)). […]

Row | SMILES | PYL2-HAB1 interaction by X-gal stain (PYL2-HAB1) | PYL4-HAB1 interaction by X-gal stain (PYL4-HAB1) | PYL1-HAB1 interaction by X-gal stain (PYL1-HAB1)
1 | CC1=CC(=O)CC(C)(C)C1(O)/C=C/C(C)=C\C(=O)O (single isomer, unassigned; (+)) [(+)-ABA] | respond | respond | 
2 | CC1=CC(=O)CC(C)(C)[C@@]1(O)/C=C/C(C)=C\C(=O)O [ABA, Abscisic acid] | interact with HAB1 in an ABA-stimulated manner | interact with HAB1 in an ABA-stimulated manner | interact with HAB1 in an ABA-stimulated manner
3 | O=S(=O)(NCc1ccccn1)c1ccc(Br)c2ccccc12 [pyrabactin] |  |  | promotes interactions
